# Results from patent US12503473B2, “Triazolopyrimidine compounds and their use in treating cancer” (Dizal (Jiangsu) Pharmaceutical Co., Ltd., priority 2018, dated 2025).
# Experiments:
# [1] = target: T1, MCT4 (Homo sapiens, UniProt O15427); test: Assay (a): lactate efflux from SK-Br-3 cells (lactate in media, 4 h); format: cell-based; set-up: a natively glycolytic human breast adenocarcinoma line predominantly expressing MCT4; host or cells: SK-Br-3; conditions: mean of at least three repeats (Example 32, marked *, two repeats), read-out: MCT4 lactate efflux pIC50 (SKBR3) (converted)
# T1 sequence (O15427 1-465): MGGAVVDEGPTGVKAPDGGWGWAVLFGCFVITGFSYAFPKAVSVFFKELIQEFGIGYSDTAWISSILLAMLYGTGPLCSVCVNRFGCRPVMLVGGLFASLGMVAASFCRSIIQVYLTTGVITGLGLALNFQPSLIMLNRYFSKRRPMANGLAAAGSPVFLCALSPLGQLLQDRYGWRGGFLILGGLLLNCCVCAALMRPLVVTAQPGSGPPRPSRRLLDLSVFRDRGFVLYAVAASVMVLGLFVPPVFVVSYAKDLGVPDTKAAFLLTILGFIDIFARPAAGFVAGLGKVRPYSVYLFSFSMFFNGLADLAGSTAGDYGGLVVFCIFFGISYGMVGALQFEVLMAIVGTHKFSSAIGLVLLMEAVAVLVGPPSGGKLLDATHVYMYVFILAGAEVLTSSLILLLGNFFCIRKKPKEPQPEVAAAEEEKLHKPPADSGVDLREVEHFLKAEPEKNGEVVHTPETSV
# Procedure: Assay plates were lidded and incubated for 4 hours at 37° C. and 5% CO2.
# [2] = target: T1, MCT4; test: cell-based
# Procedure: Cells were loaded with the pH sensitive dye BCECFAM(Invitrogen #B11150) before being washed to remove excess dye and seeded into the assay plates—directly onto the test compound—at a density of 15,000 cells/well (NCI—H358) or 30,000 cells/well (K562), in 30 μl HBSS with 1 mM [final] […] Assay plates were lidded and spun in a plate centrifuge at 170 g for 1 minute. Plates were then wrapped in foil and incubated in the dark for 1 hour at room temperature.
# Following incubation with test compound, 10 μl of 25 mM Sodium-L-Lactate (Sigma #L7022) made up in HBSS with 1 mM [final] […] This addition was performed directly on the FLIPR Tetra platform (Molecular Devices) as part of a real-time kinetic read protocol. […] A percentage change from base-line was calculated for each test well and values normalised to control wells—treated with either DMSO (maximum assay signal) or chemistry related to that described in this patent (minimum assay signal)—before fitting concentration response curves to determine an IC50 value.
IC50 [1],IC50 [2],SMILES
0.251 nM,10 nM,"Cc1nc2nc(C)c(C[C@@H]3CCN(c4cnc(-c5ccc(CN6CCN(C(=O)N(C)C)CC6)cc5)cn4)C3)c(C)n2n1 [Example 55, N,N-dimethyl-4-[4-(5-{(3R)-3-[(2,5,7-trimethyl[1,2,4]triazolo[1,5-a]pyrimidin-6-yl)methyl]pyrrolidin-1-yl}pyrazin-2-yl)benzyl]piperazine-1-carboxamide]"
0.251 nM,–,"CC(=O)N1CCN(Cc2ccc(-c3ncc(N4CC[C@@H](Cc5c(C)nc6nc(C)nn6c5C)C4)cn3)cc2)CC1 [Example 17, (R)-1-(4-(4-(5-(3-((2,5,7-trimethyl-[1,2,4]triazolo[1,5-a]pyrimidin-6-yl)methyl)pyrrolidin-1-yl)pyrimidin-2-yl)benzyl)piperazin-1-yl)ethanone]"
0.2 nM,–,"Cc1nc2nc(C)c(C[C@@H]3CCN(c4cnc(-c5ccc(CN6CCS(=O)(=O)CC6)cc5)cn4)C3)c(C)n2n1 [Example 45, 6-{[(3R)-1-(5-{4-[(1,1-dioxidothiomorpholin-4-yl)methyl]phenyl}pyrazin-2-yl)pyrrolidin-3-yl]methyl}-2,5,7-trimethyl[1,2,4]triazolo[1,5-a]pyrimidine]"
2.51 nM,–,"Cc1nc2nc(C)c(C[C@@H]3CCN(c4cnc(-c5ccc(CN6CCN(C)[C@H](C)C6)cc5)cn4)C3)c(C)n2n1 [Example 33, 6-(((R)-1-(5-(4-(((R)-3,4-dimethylpiperazin-1-yl)methyl)phenyl)pyrazin-2-yl)pyrrolidin-3-yl)methyl)-2,5,7-trimethyl-[1,2,4]triazolo[1,5-a]pyrimidine]"
0.2 nM,–,"Cc1nc2nc(C)c(C[C@@H]3CCN(c4cnc(-c5ccc(CN6CCC(S(C)(=O)=O)CC6)cc5)cn4)C3)c(C)n2n1 [Example 46, 2,5,7-trimethyl-6-({(3R)-1-[5-(4-{[4-(methylsulfonyl)piperidin-1-yl]methyl}phenyl)pyrazin-2-yl]pyrrolidin-3-yl}methyl)[1,2,4]triazolo[1,5-a]pyrimidine]"
0.794 nM,–,"Cc1nc2nc(C)c(C[C@@H]3CCN(c4cnc(-c5ccc(CN6CCCN(C)CC6)cc5)cn4)C3)c(C)n2n1 [Example 83, (R)-2,5,7-trimethyl-6-((1-(5-(4-((4-methyl-1,4-diazepan-1-yl)methyl)phenyl)pyrazin-2-yl)pyrrolidin-3-yl)methyl)-[1,2,4]triazolo[1,5-a]pyrimidine]"
0.631 nM,–,"Cc1nc2nc(C)c(C[C@@H]3CCN(c4cnc(-c5ccc(CN6CCC(CO)CC6)cc5)cn4)C3)c(C)n2n1 [Example 44, {1-[4-(5-{(3R)-3-[(2,5,7-trimethyl[1,2,4]triazolo[1,5-a]pyrimidin-6-yl)methyl]pyrrolidin-1-yl}pyrazin-2-yl)benzyl]piperidin-4-yl}methanol]"
0.316 nM,–,"CC(=O)N1CCCN(Cc2ccc(-c3cnc(N4CC[C@@H](Cc5c(C)nc6nc(C)nn6c5C)C4)cn3)cc2)CC1 [Example 79, 1-[4-[[4-[5-[(3R)-3-[(2,5,7-trimethyl-[1,2,4]triazolo[1,5-a]pyrimidin-6-yl)methyl]pyrrolidin-1-yl]pyrazin-2-yl]phenyl]methyl]-1,4-diazepan-1-yl]ethanone]"

# The next lines start with the compound.
SMILES,IC50 [1],IC50 [2]
"Cc1nc2nc(C)c(C[C@@H]3CCN(c4cnc(-c5ccc(CN6C[C@@H](C)N[C@@H](C)C6)cc5)nc4)C3)c(C)n2n1 [Example 14, 6-(((R)-1-(2-(4-(((3R,5S)-3,5-dimethylpiperazin-1-yl)methyl)phenyl)pyrimidin-5-yl)pyrrolidin-3-yl)methyl)-2,5,7-trimethyl-[1,2,4]triazolo[1,5-a]pyrimidine]",2 nM,–
"Cc1nc2nc(C)c(C[C@@H]3CCN(c4ccc(-c5ccc(CN6CCN(C)CC6)cc5)cn4)C3)c(C)n2n1 [Example 5, (R)-2,5,7-trimethyl-6-((1-(5-(4-((4-methylpiperazin-1-yl)methyl)phenyl)pyridin-2-yl)pyrrolidin-3-yl)methyl)-[1,2,4]triazolo[1,5-a]pyrimidine]",0.501 nM,12.6 nM
"Cc1nc2nc(C)c(C[C@@H]3CCN(c4ccc(-c5ccc(CN6CCN(C)CC6)cn5)cc4)C3)c(C)n2n1 [Example 27, (R)-2,5,7-trimethyl-6-((1-(4-(5-((4-methylpiperazin-1-yl)methyl)pyridin-2-yl)phenyl)pyrrolidin-3-yl)methyl)-[1,2,4]triazolo[1,5-a]pyrimidine]",0.631 nM,20 nM
"Cc1nc2nc(C)c(C[C@@H]3CCN(c4ccc(-c5cnc(CN6CCN(C)CC6)nc5)cc4)C3)c(C)n2n1 [Example 22, (R)-2,5,7-trimethyl-6-((1-(4-(2-((4-methylpiperazin-1-yl)methyl)pyrimidin-5-yl)phenyl)pyrrolidin-3-yl)methyl)-[1,2,4]triazolo[1,5-a]pyrimidine]",1 nM,–
"Cc1nc2nc(C)c(C[C@@H]3CCN(c4cnc(-c5ccc(CN6CCOCC6)cc5)nc4)C3)c(C)n2n1 [Example 19, (R)-4-(4-(5-(3-((2,5,7-trimethyl-[1,2,4]triazolo[1,5-a]pyrimidin-6-yl)methyl)pyrrolidin-1-yl)pyrimidin-2-yl)benzyl)morpholine]",0.2 nM,7.94 nM
"Cc1nc2nc(C)c(C[C@@H]3CCN(c4cnc(-c5ccc(CN6CCCC6)nc5)cn4)C3)c(C)n2n1 [Example 82, (R)-2,5,7-trimethyl-6-((1-(5-(6-(pyrrolidin-1-ylmethyl)pyridin-3-yl)pyrazin-2-yl)pyrrolidin-3-yl)methyl)-[1,2,4]triazolo[1,5-a]pyrimidine]",2.51 nM,12.6 nM
"Cc1nc2nc(C)c(C[C@@H]3CCN(c4cnc(-c5ccc(CN6CCN(C)CC6)cn5)cn4)C3)c(C)n2n1 [Example 39, (R)-2,5,7-trimethyl-6-((1-(5-(5-((4-methylpiperazin-1-yl)methyl)pyridin-2-yl)pyrazin-2-yl)pyrrolidin-3-yl)methyl)-[1,2,4]triazolo[1,5-a]pyrimidine]",2.51 nM,–
"Cc1nc2nc(C)c(C[C@@H]3CCN(c4ccc(-c5ccc(CN6CCOCC6)nc5)cn4)C3)c(C)n2n1 [Example 1, (R)-4-((6′-(3-((2,5,7-trimethyl-[1,2,4]triazolo[1,5-a]pyrimidin-6-yl)methyl)pyrrolidin-1-yl)-[3,3′-bipyridin]-6-yl)methyl)morpholine]",0.316 nM,–
"Cc1nc2nc(C)c(C[C@@H]3CCN(c4cnc(-c5ccc(CN6CCN(C)CC6)cc5C)nc4)C3)c(C)n2n1 [Example 13, (R)-2,5,7-trimethyl-6-((1-(2-(2-methyl-4-((4-methylpiperazin-1-yl)methyl)phenyl)pyrimidin-5-yl)pyrrolidin-3-yl)methyl)-[1,2,4]triazolo[1,5-a]pyrimidine]",2.51 nM,–
"Cc1nc2nc(C)c(C[C@@H]3CCN(c4ccc(-c5cnc(CN6CCOCC6)cn5)nc4)C3)c(C)n2n1 [Example 7, (R)-4-((5-(5-(3-((2,5,7-trimethyl-[1,2,4]triazolo[1,5-a]pyrimidin-6-yl)methyl)pyrrolidin-1-yl)pyridin-2-yl)pyrazin-2-yl)methyl)morpholine]",0.316 nM,–
"Cc1nc2nc(C)c(C[C@@H]3CCN(c4cnc(-c5ccc(CN6CCN(CC(=O)N(C)C)CC6)cc5)nc4)C3)c(C)n2n1 [Example 15, (R)—N,N-dimethyl-2-(4-(4-(5-(3-((2,5,7-trimethyl-[1,2,4]triazolo[1,5-a]pyrimidin-6-yl)methyl)pyrrolidin-1-yl)pyrimidin-2-yl)benzyl)piperazin-1-yl)acetamide]",1 nM,–
"Cc1nc2nc(C)c(C[C@@H]3CCN(c4cnc(-c5ccc(CN6C[C@@H](C)N(C)[C@@H](C)C6)cc5)cn4)C3)c(C)n2n1 [Example 32, 2,5,7-trimethyl-6-(((R)-1-(5-(4-(((3R,5S)-3,4,5-trimethylpiperazin-1-yl)methyl)phenyl)pyrazin-2-yl)pyrrolidin-3-yl)methyl)-[1,2,4]triazolo[1,5-a]pyrimidine]",1.26 nM,–
"COCCN1CCN(Cc2ccc(-c3ncc(N4CC[C@@H](Cc5c(C)nc6nc(C)nn6c5C)C4)cn3)cc2)CC1 [Example 18, (R)-6-((1-(2-(4-((4-(2-methoxyethyl)piperazin-1-yl)methyl)phenyl)pyrimidin-5-yl)pyrrolidin-3-yl)methyl)-2,5,7-trimethyl-[1,2,4]triazolo[1,5-a]pyrimidine]",0.631 nM,–
"Cc1nc2nc(C)c(C[C@@H]3CCN(c4ccc(-c5ncc(CN6CCN(C)CC6)cn5)cc4)C3)c(C)n2n1 [Example 25, (R)-2,5,7-trimethyl-6-((1-(4-(5-((4-methylpiperazin-1-yl)methyl)pyrimidin-2-yl)phenyl)pyrrolidin-3-yl)methyl)-[1,2,4]triazolo[1,5-a]pyrimidine]",0.794 nM,–
"COc1cc(CN2CCN(C)CC2)ccc1-c1ncc(N2CC[C@@H](Cc3c(C)nc4nc(C)nn4c3C)C2)cn1 [Example 12, (R)-6-((1-(2-(2-methoxy-4-((4-methylpiperazin-1-yl)methyl)phenyl)pyrimidin-5-yl)pyrrolidin-3-yl)methyl)-2,5,7-trimethyl-[1,2,4]triazolo[1,5-a]pyrimidine]",3.98 nM,–
"Cc1nc2nc(C)c(C[C@@H]3CCN(c4ccc(-c5cnc(CN6CCOCC6)nc5)cc4)C3)c(C)n2n1 [Example 28, (R)-4-((5-(4-(3-((2,5,7-trimethyl-[1,2,4]triazolo[1,5-a]pyrimidin-6-yl)methyl)pyrrolidin-1-yl)phenyl)pyrimidin-2-yl)methyl)morpholine]",0.251 nM,–
